Measurements reported in patent US20220313652A1, “USE OF COMPOUND OR PHARMACEUTICALLY ACCEPTABLE SALT, DIMER OR TRIMER THEREOF IN MANUFACTURE OF MEDICAMENT FOR TREATING CANCER” (priority 2020, published 2022).
pIC50: −log10 of the molar value. “Also recorded” adds a separate entry of the source. Read-outs that look alike come from different tables or passages of the source.

How the values were obtained:
[1] = test system: liver cancer HepG2 cells, colorectal cancer LoVo, HT29, DLD1, SW480, and HCT116 cells; test: Growth inhibition, Lenvatinib alone vs Sotagliflozin combined with Lenvatinib; assay type: cell-based; details: Sotagliflozin at a safe dose; variety of cell lines
Description: Therefore, the effect of the combination in the safe concentration range of Sotagliflozin is better than the effect of each single agent. It is worth mentioning that the ability of Sotagliflozin in the combination to enhance the efficacy of VEGFR-targeting TKI drugs is not limited to a single drug of Apatinib.

[2] = test system: lung cancer cell line A549; test: MTT growth inhibition / IC50 on lung cancer cell line A549; assay type: cell-based
Description: According to the tissue distribution characteristics of EGFR and SGLT1/2, the targets of Gefitinib and Sotagliflozin, the followings cells were selected for experimental verification: lung cancer cell line A549; colorectal cancer cell line LoVo, HT29, SW620, HCT116; cervical cancer HeLa; ovarian cancer SKOV3; gastric cancer HGC27; cholangiocarcinoma RBE; esophageal cancer KYSE30, and the like. After growing to 80% density, the cells were trypsinized, passaged and plated in a 96-well plate with 5000 cells per well. After 24 hours, the medium was replaced with a medium containing the corresponding concentration of drug. After 48 hours, the absorbance at each concentration was detected by the MTT method.
(§1) The experiment included the following groups:
Sotagliflozin test group (FIG. 2-a-2): cells were treated by adding Sotagliflozin alone at 6 different concentrations, 0 μM, 10 μM, 30 μM, 40 μM, […] respectively, to the culture medium, and cell survival rate was measured after […] of incubation.

[3] = test system: liver cancer cell line HepG2; test: MTT growth inhibition / IC50 on liver cancer cell line HepG2; assay type: cell-based
Protocol: After growing to 80% density, the cells were trypsinized, passaged and plated in a 96-well plate with 5000 cells per well. […] After 48 hours, the absorbance at each concentration was detected by the MTT method.

[4] = test system: prostate cancer DU145 cells; test: MTT inhibitory effect of Sotagliflozin on DU145 cells; assay type: cell-based; details: 48 hours
Protocol: (§2) Prostate cancer DU145 cells, breast cancer MCF-7 cells, esophageal cancer KYSE30 cells, gastric cancer HGC-27 cells, cholangiocarcinoma RBE cells, ovarian cancer SKOV3 cells, and cervical cancer Hela cells were used to verify the inhibitory effect of Sotagliflozin on tumor cells. After growing to 80% density, the cells were trypsinized, passaged and plated in a 96-well plate with 5000 cells per well. After 24 hours, the medium was replaced with a medium containing the corresponding concentration of drug. After 48 hours, the absorbance at each concentration was detected by the MTT method.
as §1
(§3) Control group: cells were cultured in normal culture medium without drug added.
(§4) Sotagliflozin test group: cells were treated by adding Sotagliflozin at different concentration to each culture medium.
(§5) After incubation, the cell growth inhibition rate was calculated by dividing the absorbance value at each concentration by the absorbance value of the control group. In the figures, the concentration of Sotagliflozin is taken as the abscissa and the cell growth inhibition rate is taken as the ordinate.

[5] = test system: breast cancer MCF-7 cells; test: MTT inhibitory effect of Sotagliflozin on MCF-7 cells; assay type: cell-based; details: 48 hours
Protocol: as §2, §1, §3, §4, §5

[6] = test system: esophageal cancer KYSE30 cells; test: MTT inhibitory effect of Sotagliflozin on KYSE30 cells; assay type: cell-based; details: 48 hours
Protocol: as §2, §1, §3, §4, §5

[7] = test system: gastric cancer HGC-27 cells; test: MTT inhibitory effect of Sotagliflozin on HGC-27 cells; assay type: cell-based; details: 48 hours
Protocol: as §2, §1, §3, §4, §5

[8] = test system: cholangiocarcinoma RBE cells; test: MTT inhibitory effect of Sotagliflozin on RBE cells; assay type: cell-based; details: 48 hours
Protocol: as §2, §1, §3, §4, §5

[9] = test system: ovarian cancer SKOV3 cells; test: MTT inhibitory effect of Sotagliflozin on SKOV3 cells; assay type: cell-based; details: 48 hours
Protocol: as §2, §1, §3, §4, §5

[10] = test system: cervical cancer HeLa cells; test: MTT inhibitory effect of Sotagliflozin on HeLa cells; assay type: cell-based; details: 48 hours
Protocol: as §2, §1, §3, §4, §5

[11] = test system: normal human umbilical cord epithelial cells
[12] = test system: lung cancer A549 cells; test: Tumor treatment experiment in A549 tumor cell-bearing nude mice
Protocol: After growing to the logarithmic phase, A549 cells were collected and resuspended in serum-free DMEM medium to 5×10^7 cells per ml. Each mouse was inoculated with 100 μl of 5×10^6 cells, and the tumor size was measured 19 days later. Mice were grouped according to the tumor size, and the average tumor size in each group was the same. Mice were administered after grouping.
The dose of Gefitinib was 100 mg per kilogram according to the reported dose for the treatment of A549 xenograft tumor in previous studies. The two drugs were administered by gavage, consistent with the current oral mode in clinical use. The dosing cycle was once every two days. The tumor size was measured every two days. After 40 days of administration, the test was ended, and the tumor was removed and weighed.

[13] = test system: liver cancer cell line HepG2; colorectal cancer cell line LoVo, HT29, SW620, SW480; test: MTT growth inhibition, Apatinib alone vs Apatinib+Sotagliflozin on tumor cell lines; assay type: cell-based; details: Apatinib 5-30 μM alone or with Sotagliflozin 20 μM, 48 hours
Description: After obtaining the effectiveness of Gefitinib in Example 1, the present disclosure further validated another VEGFR-targeting TKI drug, Apatinib. According to the tissue distribution characteristics of VEGFR and SGLT1/2, the targets of Apatinib and Sotagliflozin, the followings cells were selected for experimental verification: liver cancer cell line HepG2; colorectal cancer cell line LoVo, HT29, SW620, SW480; cervical cancer HeLa; ovarian cancer SKOV3; gastric cancer HGC27; cholangiocarcinoma RBE; esophageal cancer KYSE3, and the like. After growing to 80% density, the cells were trypsinized, passaged and plated in a 96-well plate with 5000 cells per well. After 24 hours, the medium was replaced with a medium containing the corresponding concentration of Apatinib, Sotagliflozin, or the combination of Apatinib and Sotagliflozin. After 48 hours, the absorbance at each concentration was detected by the MTT method. The experiment included the following groups: Control group: cells were cultured in normal culture medium without drug added. […] The cell growth inhibition rate was calculated by dividing the absorbance value at each concentration by the absorbance value of the control group. […] In the figures, the concentration of Apatinib is taken as the abscissa and the cell growth inhibition rate is taken as the ordinate.

[14] = A549 tumor-bearing nude mice, gavage once every two days, 40 days

COc1cc2nccc(Oc3ccc(NC(=O)NC4CC4)c(Cl)c3)c2cc1C(N)=O [Lenvatinib]
effect of addition of Sotagliflozin on inhibitory effect of Lenvatinib [1]: enhanced the inhibitory effect

Sotagliflozin
pIC50 ([2]; Sotagliflozin alone, lung cancer A549 cells, summary value, read-out: IC50): 4.15 | pIC50 ([2]; single agent alone, cell survival rate after 1 h of incubation, read-out: IC50 value on A549 cells): 4.14 | pIC50 ([3]; Sotagliflozin alone, liver cancer HepG2 cells, summary value, read-out: IC50): 3.94 | pIC50 ([3]; Sotagliflozin alone, cell survival rate after 2 h of incubation, read-out: IC50 value on HepG2 cells): 3.94 | pIC50 [4]: 4.39 | pIC50 [5]: 4.19 | pIC50 [6]: 4.08 | pIC50 [7]: 4.31 | pIC50 [8]: 3.74 | pIC50 [9]: 4.07 | pIC50 [10]: 4.09 | concentration at which mainly cell growth inhibition effect is exhibited [11]: lower than 8 μM | concentration producing great cytotoxicity [11]: higher than 80 μM | Tumor growth inhibition rate [12, 14]: 58.4 | Tumor volume ratio of each group to the control group [12, 14]: 0.416 | Average tumor volume ([12]; A549 tumor-bearing nude mice, gavage once every two days, 40 days, Sotagliflozin 30 mg/kg, Gefitinib 100 mg per kilogram): 430.3 | inhibitory effect on tumor volume / tumor growth ([12]; tumor-bearing mice): can inhibit tumor growth; also recorded: good inhibitory effect on tumor volume

N#CC1(c2ccc(NC(=O)c3cccnc3NCc3ccncc3)cc2)CCCC1 [Apatinib]
pIC50 ([3]; Homo sapiens, HepG2, Apatinib alone, cell survival rate after 2 h of incubation, read-out: IC50 value on HepG2 cells): 4.34 | inhibitory effect on tumor cells (cell growth inhibition rate) [13]: limited

COc1cc2ncnc(Nc3ccc(F)c(Cl)c3)c2cc1OCCCN1CCOCC1 [Gefitinib]
Average tumor volume ([12]; mouse, in vivo): 504.8 | Tumor volume ratio of each group to the control group ([12]; mouse, in vivo): 0.4881
